# Measured values published in patent publication US4906662A, “Phenol derivatives, their preparation and the use thereof” (Otsuka Pharmaceutical Factory, Inc., priority 1986, dated 1990).
# Where a name gives a salt, the structure may show the parent alone.
# Legend:
# [1] = system: carrageenin-induced paw edema; test: Anti-inflammatory activity: inhibition of carrageenin-induced paw edema in rats; format: in vivo, rat (S.D. strain, male); conditions: po, read-out: Percent inhibition of edema; for inhibition in vivo at 100 mg/kg: 100 mg/kg p.o., rat, 3 hours after carrageenin
# Method: (1) Anti-inflammatory activity:inhibition of carrageenin-induced paw edema in rats The compound was tested for the above activity according to the method of Winter et al. [Proc. Soc. […] One hour after the test compound was orally given to the animal, 0.1 ml of 1% carrageenin solution was subcutaneously injected into the right footpad. The paw volume was measured 3 hours thereafter, and the resulting increase in the volume was calculated based on the volume before the injection of carrageenin solution. The percent inhibition was determined in comparison with the increase in the control group.
# [2] = target: T1, 5-lipoxygenase (Cavia porcellus, UniProt A0A286X958); test: 5-Lipoxygenase inhibitory activity (5-HETE formation in guinea pig peritoneal exudate cells); format: cell-based; conditions: read-out: Percent inhibition of 5-lipoxygenase
# T1 construct: endogenous in cells; host or cells: guinea pig peritoneal exudate cells (casein-elicited), intact cell suspension
# T1 sequence (A0A286X958 1-674): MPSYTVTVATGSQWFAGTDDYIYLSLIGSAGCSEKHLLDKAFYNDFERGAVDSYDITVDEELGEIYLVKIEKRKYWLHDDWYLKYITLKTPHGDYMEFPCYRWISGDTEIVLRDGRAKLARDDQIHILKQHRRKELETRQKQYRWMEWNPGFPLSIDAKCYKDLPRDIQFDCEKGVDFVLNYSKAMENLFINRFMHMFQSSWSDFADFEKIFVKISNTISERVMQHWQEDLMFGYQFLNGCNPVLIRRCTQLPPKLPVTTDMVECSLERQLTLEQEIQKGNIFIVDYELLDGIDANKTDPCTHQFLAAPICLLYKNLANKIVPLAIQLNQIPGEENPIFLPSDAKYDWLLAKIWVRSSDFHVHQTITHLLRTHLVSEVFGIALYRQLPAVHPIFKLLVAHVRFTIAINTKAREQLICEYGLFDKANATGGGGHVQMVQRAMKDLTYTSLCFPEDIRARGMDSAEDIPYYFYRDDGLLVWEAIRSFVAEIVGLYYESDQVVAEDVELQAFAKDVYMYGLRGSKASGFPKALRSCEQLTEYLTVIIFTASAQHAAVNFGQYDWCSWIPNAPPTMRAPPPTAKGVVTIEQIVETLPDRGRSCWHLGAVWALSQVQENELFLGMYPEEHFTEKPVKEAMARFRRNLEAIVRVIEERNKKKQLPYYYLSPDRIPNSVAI
# Method: (J. Biol. Chem., 256, 4156 (1981)) and to the method of Ochi et al. (J. Biol. Chem., 258, 5754 (1983). More specifically, 2% casein was intraperitoneally given to a guinea pig, which was bleeded to death 14 to 16 hours thereafter. The peritoneal cavity was washed to collect exudate cells, which were suspended in a phosphate buffer containing 1 mM CaCl2 and 5.5 mM glucose to a concentration of 2.5×10^7 cells/ml. The cell suspension was incubated at 30° C. for 2 minutes. The test compound was then added to the cell suspension, followed by incubation for 2 minutes. With addition of 10 μM of A23187 first and then 10 μM of ^14 C-arachidonic acid to the resulting suspension. Then, the suspension was incubated for 3 minutes. […] The arachidonic acid, 5(S)-hydroxy-6,8,11,14-eicosatetraenoic acid (5-HETE) and other portions were thereafter scraped off, and ^14 C was counted by a scintillator.
structure (smiles),measurement,setting,value
CC(C)(C)c1cc(Nc2ccc(CC(=O)N3CCOCC3)cc2)cc(C(C)(C)C)c1O [Compound 71],inhibition in vivo at 100 mg/kg,[1],20%
"Cc1cc(Nc2ccccc2)c(C)c(C)c1O [Compound 79, 2,3,6-trimethyl-4-phenylaminophenol]",inhibition at 1 µM,[2],87%
same,inhibition at 10 µM,[2],93%
same,inhibition in vivo at 100 mg/kg,[1],47%
CC(C)(C)c1cc(Nc2ccc(CCO)cc2)cc(C(C)(C)C)c1O [Compound 33],inhibition at 1 µM,[2],52%
same,inhibition at 10 µM,[2],86%
CC(C)(C)c1cc(Nc2ccc(S(C)(=O)=O)cc2)cc(C(C)(C)C)c1O [Compound 92],inhibition in vivo at 100 mg/kg,[1],35%
"COc1ccc(Nc2cc(C)c(O)c(C)c2C)cc1 [Compound 91, 2,3,6-trimethyl-4-(4-methoxyphenylamino)phenol]",inhibition at 1 µM,[2],95%
same,inhibition at 10 µM,[2],95%
"Cc1ccc(Nc2cc(C)c(O)c(C)c2C)cc1 [Compound 81, 2,3,6-trimethyl-4-(4-methylphenylamino)phenol]",inhibition at 1 µM,[2],91%
same,inhibition at 10 µM,[2],95%
"CC(C)(C)c1cc(Nc2ccccc2CO)cc(C(C)(C)C)c1O [Compound 32, 2,6-di-tert-butyl-4-(2-hydroxymethylphenylamino)phenol]",inhibition at 1 µM,[2],34%
same,inhibition at 10 µM,[2],63%
same,inhibition in vivo at 100 mg/kg,[1],74%
CC(C)(C)c1cc(Nc2ccc(N)cc2)cc(C(C)(C)C)c1O [Compound 14],inhibition at 1 µM,[2],15%
same,inhibition at 10 µM,[2],57%
same,inhibition in vivo at 100 mg/kg,[1],42%
CCCCCCCCCNC(=O)c1ccc(Nc2cc(C(C)(C)C)c(O)c(C(C)(C)C)c2)cc1 [Compound 63],inhibition in vivo at 100 mg/kg,[1],29%
"Cc1cc(Nc2ccc(Cl)cc2)c(C)c(C)c1O [Compound 94, 2,3,6-trimethyl-4-(4-chlorophenylamino)phenol]",inhibition at 1 µM,[2],90%
same,inhibition at 10 µM,[2],96%
"CC(Cc1ccc(O)c(O)c1)C(C)Cc1ccc(O)c(O)c1 (stereo not shown) [NDGA, nordihydroguaiaretic acid, reference compound]",inhibition at 1 µM,[2],45%
CC(C)(C)c1cc(Nc2cccc(C(F)(F)F)c2)cc(C(C)(C)C)c1O [Compound 4],inhibition in vivo at 100 mg/kg,[1],16%
"CC(C)(C)c1cc(Nc2ccc(CC(=O)NN)cc2)cc(C(C)(C)C)c1O [Compound 76, 2,6-di-tert-butyl-4-(4-hydrazinocarbonylmethylphenylamino)phenol]",inhibition in vivo at 100 mg/kg,[1],47%
"CC(C)(C)c1cc(Nc2ccccc2)cc(C(C)(C)C)c1O [2,6-di-tert-butyl-4-phenylaminophenol, reference compound]",inhibition at 1 µM,[2],2%
same,inhibition at 10 µM,[2],62%
same,inhibition in vivo at 100 mg/kg,[1],62%
CC(C)(C)c1cc(Nc2ccc(CCCC(=O)O)cc2)cc(C(C)(C)C)c1O [Compound 22],inhibition at 1 µM,[2],28%
same,inhibition at 10 µM,[2],67%
CCCCCCNC(=O)/C=C/c1cccc(Nc2cc(C(C)(C)C)c(O)c(C(C)(C)C)c2)c1 [Compound 66],inhibition in vivo at 100 mg/kg,[1],15%
"COC(=O)Cc1ccc(Nc2cc(C)c(O)c(C)c2C)cc1 [Compound 86, 4-(4-methoxycarbonylmethylphenylamino)-2,3,6-trimethylphenol]",inhibition at 1 µM,[2],93%
same,inhibition at 10 µM,[2],92%
Cc1ccc(Nc2cc(C(C)(C)C)c(O)c(C(C)(C)C)c2)cc1 [Compound 20],inhibition at 1 µM,[2],16%
same,inhibition at 10 µM,[2],51%
CC(C)(C)c1cc(Nc2ccc(S(N)(=O)=O)cc2)cc(C(C)(C)C)c1O [Compound 93],inhibition in vivo at 100 mg/kg,[1],16%
Cc1cc(Nc2ccc(CC(=O)O)cc2)c2c(c1O)CCCC2 [Compound 104],inhibition at 1 µM,[2],55%
same,inhibition at 10 µM,[2],90%
"CC(C)(C)c1cc(Nc2ccc(C#N)cc2)cc(C(C)(C)C)c1O [Compound 28, 2,6-di-tert-butyl-4-(4-cyanophenylamino)phenol]",inhibition in vivo at 100 mg/kg,[1],58%
CSc1ccccc1Nc1cc(C(C)(C)C)c(O)c(C(C)(C)C)c1 [Compound 12],inhibition in vivo at 100 mg/kg,[1],41%
"Cc1cc(Nc2ccccc2)c2c(c1O)CCCC2 [Compound 80, 2-methyl-4-phenylamino-5,6,7,8-tetrahydronaphthol]",inhibition at 1 µM,[2],78%
same,inhibition at 10 µM,[2],94%
CC(C)(C)c1cc(Nc2ccc(CC(=O)O)cc2)cc(C(C)(C)C)c1O [Compound 5],inhibition at 1 µM,[2],21%
same,inhibition at 10 µM,[2],46%
CC(C)(C)c1cc(Nc2cccc(C(N)=O)c2)cc(C(C)(C)C)c1O [Compound 89],inhibition in vivo at 100 mg/kg,[1],31%
"CC(C)(C)c1cc(Nc2ccccc2C(=O)O)cc(C(C)(C)C)c1O [Compound 25, 2,6-di-tert-butyl-4-(2-carboxyphenylamino)phenol]",inhibition at 10 µM,[2],66%
CC(C)(C)c1cc(Nc2ccc(C(=O)O)cc2)cc(C(C)(C)C)c1O [Compound 26],inhibition at 1 µM,[2],33%
same,inhibition at 10 µM,[2],71%
"CC(C)(C)c1cc(Nc2cccc(C(=O)O)c2)cc(C(C)(C)C)c1O [Compound 24, 2,6-di-tert-butyl-4-(3-carboxyphenylamino)phenol]",inhibition at 1 µM,[2],26%
same,inhibition at 10 µM,[2],51%
CC(C)(C)c1cc(Nc2ccccc2O)cc(C(C)(C)C)c1O [Compound 3],inhibition in vivo at 100 mg/kg,[1],25%
"CN(C)c1ccc(Nc2cc(C(C)(C)C)c(O)c(C(C)(C)C)c2)cc1 [Compound 42, 4-(4-dimethylaminophenylamino)-2,6-di-tert-butylphenol dihydrochloride]",inhibition at 1 µM,[2],19%
same,inhibition at 10 µM,[2],50%
CC(C)(C)c1cc(Nc2cc(Cl)ccc2O)cc(C(C)(C)C)c1O [Compound 19],inhibition at 1 µM,[2],37%
same,inhibition at 10 µM,[2],58%
Cc1ccc(Nc2cc(C(C)(C)C)c(O)c(C(C)(C)C)c2)c(C(=O)O)c1 [Compound 29],inhibition at 1 µM,[2],19%
same,inhibition at 10 µM,[2],71%
"COc1ccc2c(c1)c(CC(=O)O)c(C)n2C(=O)c1ccc(Cl)cc1 [indomethacin, reference compound]",inhibition in vivo at 5 mg/kg,"[1]; Rattus norvegicus, 3 h",62%
Cc1cc(Nc2ccc(C(=O)O)cc2)c(C)c(C)c1O [Compound 102],inhibition at 1 µM,[2],42%
same,inhibition at 10 µM,[2],90%
"COC(=O)Cc1ccc(Nc2cc(C)c(O)c3c2CCCC3)cc1 [Compound 87, 2-methyl-4-(4-methoxycarbonylmethylphenylamino)-5,6,7,8-tetrahydronaphthol]",inhibition at 1 µM,[2],89%
same,inhibition at 10 µM,[2],95%
CCCCCC(=O)/C=C/c1cccc(Nc2cc(C(C)(C)C)c(O)c(C(C)(C)C)c2)c1 [Compound 51],inhibition in vivo at 100 mg/kg,[1],10%
"CC(C)(C)c1cc(Nc2ccc(Cl)cc2CO)cc(C(C)(C)C)c1O [Compound 38, 2,6-di-tert-butyl-4-(4-chloro-2-hydroxymethylphenylamino)phenol]",inhibition in vivo at 100 mg/kg,[1],79%
CC(=O)c1ccc(Nc2cc(C(C)(C)C)c(O)c(C(C)(C)C)c2)cc1 [Compound 9],inhibition at 1 µM,[2],27%
same,inhibition at 10 µM,[2],67%
"CCOC(=O)/C=C/c1cccc(Nc2cc(C)c(O)c(C)c2C)c1 [Compound 52, ethyl 3-(4-hydroxy-2,3,5-trimethylphenylamino)cinnamate hydrochloride]",inhibition at 1 µM,[2],75%
same,inhibition at 10 µM,[2],95%
CC(C)(C)c1cc(Nc2ccccc2Cl)cc(C(C)(C)C)c1O [Compound 2],inhibition in vivo at 100 mg/kg,[1],12%
"CC(C)(C)c1cc(Nc2ccccc2/C=C/C(=O)O)cc(C(C)(C)C)c1O [Compound 48, 2-(3,5-di-tert-butyl-4-hydroxyphenylamino)cinnamic acid]",inhibition in vivo at 100 mg/kg,[1],62%
Cc1cc(Nc2cccc(CC(=O)O)c2)c(C)c(C)c1O [Compound 103],inhibition at 1 µM,[2],41%
same,inhibition at 10 µM,[2],91%
